We go through three molecules from US20010006660A1, “LOW-RIGIDITY LIPOSOMAL FORMULATION” (priority 1999, published 2001).

The subject of data set [1] is Pseudomonas aeruginosa PA 508 (mucoid phenotype). Nature of the data set: Bactericidal activity in rat model of chronic pulmonary infection (agar beads). The class given is in vivo. Particulars: Sprague-Dawley rats. The method, then: To evaluate the bactericidal efficacy of a liposomal aminoglycoside formulation produced according to the present invention, male, pathogen-free, Sprague-Dawley rats weighing 175 to 225 g (Charles River) were used. Chronic infection in lungs was established by intratracheal administration of 5×10^5 CFU of Pseudomonas aeruginosa PA 508 (mucoid phenotype) prepared in agar beads. After 3 days, three doses (600 μg) of free or liposome-encapsulated tobramycin were given intratracheally at intervals of 16 h. The lipid mixture were DPPC:DMPG at a molar ratio of 10:1 (formula no 1) and DPPC:DMPC at a molar ration of 15:1 (formula no 2). Sixteen hours after the last treatment, the animals were sacrificed and the entire lungs were removed aseptically, weighed, and homogeneized as described previously for mice. Serial 10-fold dilutions of the homogenates in cold PBS were made and spread in triplicate on proteose peptone agar plates. Identification of P. aeruginosa was confirmed by specific cultures. CFU were counted after 24 hour incubations at 37° C. under 5% CO^2. Counts were expressed in log CFU per pair of lungs. PBS and PBS-liposomes were used as controls. A second experiment to study the bactericidal effect of the liposomal tobramycin preparation, produced according to the present invention, was carried out as for Table 4 with the following modifications: 1) liposomes were prepared with a 15:1 molar ratio of DPPC:DMPG (formula no. 3); and 2) only two doses of 240 μg of free or liposome-encapsulated tobramycin were administered to the rats.

The subject of data set [2] is Burkholderia cepacia (strain ID-28369). Briefly: MIC of clinical strain. The class given is cell-based.
Data set [3] deals with Xanthomonas maltophilia. Nature of the data set: In vitro bactericidal activity, viable bacterial counts in proteose peptone. The conditions noted are these: free tobramycin 3,12 μg/ml, liposomes entrapped tobramycin 3,08 μg/ml. The class given is cell-based. The method, then: To evaluate the bactericidal efficacy of the liposonal tobramycin formulation produced according to the present invention (DPPC/DMPG), in vitro tests were performed against different clinical strains: […] To culture tubes containing proteose peptone (29 ml) a minimal number of 10^8 CFU of bacteria in logarithmic phase (1 ml) and of one of the following preparations (100 μl) were added at time zero: free tobramycin, control liposomes or PBS. Experiments were done in triplicate. At times 1, 3, 6, and 16 hours following the addition of antibiotic or controls, 2 ml of samples were collected and serial 10-fold dilutions were made and spread in triplicate on proteose peptone agar plates for gram negative strains and on […] for S. aureus. CFU were counted after 24-hour and 48-hourS incubations at 37° C. under 5% CO2. Counts were expressed in log CFU per ml of culture media.

For data set [4], the system named is Xanthomonas maltophilia. Nature of the data set: MIC of clinical strain. In kind it is cell-based. Particulars: Stenotrophomonas maltophilia.
Data set [5] has as its system Escherichia coli (strain 1061 mn 88). Nature of the data set: MIC of clinical strain. The class given is cell-based.
In data set [6] the test system is Pseudomonas aeruginosa (strain 429). Nature of the data set: MIC of clinical strain. In kind it is cell-based.
In data set [7] the test system is Staphylococcus aureus (strain LSPQ 2499). Nature of the data set: MIC of clinical strain. The class given is cell-based.
Data set [8] can be described thus: Phase transition / destabilization temperature by differential scan calorimetry. In kind it is physicochemical. The method, then:
The formulations of liposomes were assessed for their ability to fuse with bacteria. The liposomes were prepared as described above and contained different lipid mixtures. These lipid mixtures were dipalmitoylphosphatidylcholine (DPPC): dimirystoylphosphatidylglycerol (DMPG), DPPC: soybean 1-α-phosphatidylinositol, sodium salt, (PI), and 1,2-di-o-hexadecyl-sn-glycero-3-phosphocholine (DHPC): DMPG. All lipid mixtures were used at ratios of 10:1. PI is negatively charged with a phase transition temperature (Tc) of 23° C., while DHPC is neutral with a Tc of 42° C. All three formulations have a Tc of about 29.5° C. […] The bacterial strain used was Pseudomonas aeruginosa strain 429.
Different tobramycin-encapsulated liposomal formulations were prepared according to Example 1 and analyzed by differential scan colorimetry. Using differential scan calorimetry, the temperatures of phase transition (TC) were calculated for the tobramycin-liposomal formulations listed in Table 2. All these formulations were then listed in vitro to assess the antibiotic kinetics of liberation from the liposomes. In addition, these formulations were tested in a non-infected mouse model as previously described (Omri et al. 1994, Antimicrob. Agents Chemother. 38:1090-1095) to assess the persistence of the liposomes in the lung.

Where [9] appears, read: two doses of 240 μg intratracheally, '<significant count' = none or only rare cfu (0 to 6) on plates.

With `NC[C@H]1O[C@H](O[C@H]2[C@H](O)[C@@H](O[C@H]3O[C@H](CO)[C@@H](O)[C@H](N)[C@H]3O)[C@H](N)C[C@@H]2N)[C@H](N)C[C@@H]1O` [Free tobramycin, tobramycin], the “log cfu/pair of lungs” value is 7.10 log cfu/pair of lungs in data set [1] (three doses (600 μg) intratracheally at intervals of 16 h, '<significant count' = none or only rare cfu (0 to 4) on plates) and 6.03 log cfu/pair of lungs in data set [1] (setting [9]). The cfu/pair of lungs in data set [1] (three doses (600 μg) intratracheally at intervals of 16 h, '<significant count' = none or only rare cfu (0 to 4) on plates, counts <30 not statistically significant) is 1.25 × 10^7 cfu/pair of lungs; in data set [1] (setting [9]) it was 1.07 × 10^6 cfu/pair of lungs. In addition, the MIC in data set [2] was no less than 27 µg/mL; in data set [4] it was greater than 5 µg/mL; in data set [5], no less than 5 µg/mL; in data set [6], no less than 60 µg/mL; in data set [7], no less than 9 µg/mL. Moreover, the “Viable bacterial counts (cfu)” value is listed as 3,7 × 10^10 cfu in data set [3] (0 h); 3,00 × 10^12 cfu in data set [3] (1 h after addition); 8,20 × 10^14 cfu in data set [3] (3 h after addition); 7,80 × 10^16 cfu in data set [3] (6 h after addition); 8,57 × 10^18 cfu in data set [3] (16 h after addition).
With “soybean 1-α-phosphatidylinositol, sodium salt [PI]”, in data set [8], the “phase transition temperature (Tc)” value worked out at 23 °C.
With `CCCCCCCCCCCCCCCCOC[C@H](COP(=O)([O-])OCC[N+](C)(C)C)OCCCCCCCCCCCCCCCC` [DHPC, 1,2-di-o-hexadecyl-sn-glycero-3-phosphocholine], the “phase transition temperature (Tc)” value in data set [8] is 42 °C.
